# Measured values published in ChEMBL document CHEMBL1136500, “1,3-dihydrobenzo[c]furan nucleoside analogues: additional studies of the thymine derivative” (Bioorg Med Chem Lett, 2003).
# The source made the active and inactive calls. No cut-off for these calls is given here.
# Key:
# [1] = Partition coefficient (logP); format: physicochemical; details: octanol/water
# [2] = Half life at pH 2.0; format: ADME; details: buffer
# [3] = Half life at pH 1.2; format: ADME; details: buffer
# [4] = Half life at pH 7.3; format: ADME; details: buffer
# [5] = target: Human immunodeficiency virus type 1 reverse transcriptase (Human immunodeficiency virus 1) (UniProt Q72547); test: Inhibitory activity against human immunodeficiency virus-1 reverse transcriptase (HIV-1 RT) at a concentration up to 10 uM; IA=Inactive
# [6] = target: Human immunodeficiency virus type 1 reverse transcriptase (Human immunodeficiency virus 1) (UniProt Q72547); test: Inhibitory activity against human immunodeficiency virus-1 reverse transcriptase (HIV-1 RT) at a concentration up to 100 uM; IA-Inactive
# [7] = target: Human immunodeficiency virus type 1 reverse transcriptase (Human immunodeficiency virus 1) (UniProt Q72547); test: Inhibitory activity against human immunodeficiency virus-1 reverse transcriptase (HIV-1 RT)
logP [1],half-life [2] [days],half-life [3] [days],half-life [4] [days],Activity [5],Activity [6],IC90 [7] [nM],SMILES
0.55,31,18,34,inactive,–,–,Cc1cn([C@@H]2O[C@H](CO)c3ccccc32)c(=O)[nH]c1=O
–,–,–,–,–,inactive,–,Cc1cn([C@@H]2O[C@H](COP(=O)(O)OP(=O)(O)OP(=O)(O)O)c3ccccc32)c(=O)[nH]c1=O
-0.77,5,3,6,–,–,100,Cc1cn([C@H]2C=C[C@@H](CO)O2)c(=O)[nH]c1=O [STAVUDINE]
